# Source: a melting point compilation (Tetko et al.; mined from patent text by program, amines drawn as free bases though some values may be those of a salt)
row,melting point [°C],Structure (SMILES)
1,111 to 115,O=C(C[C@H](NC(=O)C(F)(F)F)C(=O)O)c1ccc2c(c1)Cc1ccccc1-2
2,121 to 123,Nc1ccc(C(=O)c2cccc(N)c2)cc1
3,105,Clc1nccc(N[C@H]2CC[C@@H](c3ccccc3)CC2)c1Br
4,163 to 166,CC1Oc2c(Cc3ccccc3)cc(C=O)cc2NC1=O (configuration not stated)
5,111 to 118,O=C(COc1ccc(Cl)cc1Cl)OCCOC(=O)c1cc(Oc2ccc(C(F)(F)F)cc2Cl)ccc1[N+](=O)[O-]
6,157 to 159,Cc1ccc(C2c3c(C)c(N4C(=O)c5cc(Cl)c(Cl)cc5C4=O)c(C)c(C)c3OC2(C)C)cc1 (configuration not stated)
7,176 to 190,Nc1nc2c(s1)CC(CCN1CCN(c3ccccn3)CC1)CC2 (configuration not stated)
8,165 to 167,O=C(Nc1cccc2c3c(oc12)CCC=C3)c1c(Cl)cccc1Cl
9,124,CCC(=O)Oc1cccc2c1C(=O)c1c(OC(=O)CC)cccc1C2C(=O)CC(C)C
10,145 to 147,Cc1nc(C)c(Cl)c(NCc2nccc(SCCCSCCn3c([N+](=O)[O-])cnc3C)c2C)n1
11,199 to 200,Cc1cc(N)ccc1N1CCC(N2CCOCC2)CC1
12,152 to 155,Nc1nc(N)c2ncn(C(O)C3C=CCC3)c2n1 (configuration not stated)
13,118 to 123,O=C(Nc1ccc(Cl)c(Cl)c1)Oc1cccc(N=C=S)c1
14,202,O=C(c1cccc(O)c1)c1sc2cc(O)ccc2c1-c1ccccc1
15,143,CN1CCOC(C2=C(C#N)C(c3cccc4nonc34)c3c[nH]nc3N2)C1 (configuration not stated)
16,230 to 232,O=C(O)c1cc(S)n2ncnc2n1
17,65 to 67,CCc1cn(C[C@@H](C)O)c2ccc(F)cc12
18,175 to 180,Cc1c(NC(=O)CC(CSC(=O)[C@@H](C)NC(=O)C2CCCCC2)c2ccccc2)cccc1C(=O)O (some centres not stated)
19,153 to 154,COC1(c2cc(F)cc(Sc3ccc(C(=NO)c4nccs4)cc3)c2)CCOCC1
20,100 to 101,CCc1cc([N+](=O)[O-])c(N)cc1Cl
21,201 to 203,COc1cc(Nc2nc3cccc(-c4cncc5ccccc45)c3o2)cc(OC)c1OC
22,132,COC(=O)C(=O)Nc1ccc(-c2ccccc2S(=O)(=O)NC(C)(C)C)cc1
23,137 to 139,Brc1cccc2[nH]cc(Sc3ccccc3)c12

row,melting point [°C],Structure (SMILES)
1,237 to 239,Cc1c(NC(=O)CC(C)(C)C)c(C)c2c(c1-c1cccc(N)n1)OCC2c1ccc(C(C)C)cc1 (configuration not stated)
2,145,Cc1nnc(NC(C)C)s1
3,186 to 188,O=C1c2ccccc2C(=O)N1CCS(=O)(=O)c1ccccc1
4,188,CC(=O)OC1CSC(Oc2ccc(I)nc2Cl)C(OC(C)=O)C1OC(C)=O (configuration not stated)
5,217 to 219,O=c1[nH]ncc(NCCN2CCN(c3cccc4c3OCCO4)CC2)c1Cl
6,100 to 102,COC(=O)/C=C/C=C(c1ccccc1OC)c1ccccc1OC
7,252 to 253,C[C@@H]1O[C@](C#CC2CC2)(C(F)(F)F)c2c(ccc3c2OCO3)NC1=O (relative stereo)
8,146 to 148,Cc1ccc(-c2cc(C)c3c(c2)C(C)CC(=O)N3)c(C)n1 (configuration not stated)
9,117 to 120,COC(=O)C(C(=O)OC)C(Cc1cc(Cl)ccc1[N+](=O)[O-])c1ccc(OC)cc1 (configuration not stated)
10,177 to 180,CS(=O)(=O)Nc1ccc2c(c1)S(=O)(=O)NC1CCCN21 (configuration not stated)
11,167,COc1ncccc1-c1cncc(OC2SCC(OC(C)=O)C(OC(C)=O)C2OC(C)=O)c1 (configuration not stated)
12,71 to 76,CCNC(=O)c1sc(S(C)=O)cc1[Si](C)(C)C (configuration not stated)
13,119 to 120,CCCC(=O)Nc1ccc(-n2cc(CCCOc3c(CC(=O)O)cccc3OC)c(C(C)C)n2)nc1
14,139 to 140,CCCCCCCCn1nnc(NC(=O)Nc2c(C(C)C)cccc2C(C)C)n1
15,86 to 88,FC1(N2CCOCC2)C=C(Cl)C=CC1NC(=S)C1C=CCCC1 (configuration not stated)
16,73 to 74,CCSc1nc(-c2ccccc2)c(-c2ccccc2)s1
17,54,COC(=O)CN(C)c1cccc(-c2ccc(Cl)cc2)n1
18,112 to 114,CCc1nc2c(cnn2CC)c(NC2CCOCC2)c1CNC(=O)c1cccc(C(=O)NCc2ccc(Cl)c(-c3cccc(CN4CCN(C)CC4)c3)c2)c1
19,62 to 64,CCOC(=O)c1[nH]cc(C)c1-c1ccccc1
20,122 to 129,CCCCCCCC(O)CNCCCCCCNCC(O)CCCCCCC (configuration not stated)
21,76 to 80,C=C(C)C(=O)Oc1ccc(/C=C/C(=O)OC)cc1
22,274 to 276,Cc1ccc(Br)cc1NS(=O)(=O)c1ccccc1C(=O)O
23,172 to 173,COc1ccc2c(c1OC)C(=O)O[C@@H]2[C@H]1c2c(c(I)c3c(c2OC)OCO3)CCN1C

row,melting point [°C],Structure (SMILES)
1,135 to 137,COC(=O)CC(Nc1ccccc1OC)c1cc2ccccc2nc1Cl (configuration not stated)
2,> 250,C#CCN1C(=O)COc2ccc(-n3c(=O)cc(C(F)(F)F)[nH]c3=O)cc21
3,142,O=C(O)C1Sc2ccccc2-c2[nH]c3ccccc3c21 (configuration not stated)
4,138 to 140,COc1ccc(C(C)=O)cc1C12CC3CC(CC(C3)C1)C2
5,77 to 83,COC1=NS(=O)(=O)N(C)C(Cl)=N1
6,92 to 93,CCN(CC)C(=O)CCc1ccc(O)c(N)c1
7,213 to 215,CC(=NOCCOc1ccc(CC2SC(=O)NC2=O)cc1)c1ccc(S(=O)(=O)c2ccncc2)cc1 (configuration not stated)
8,153 to 154,CCc1nn2c(N3CCN(C)CC3)cc(OCCO)nc2c1S(=O)(=O)c1ccccc1
9,184 to 189,CC1c2ccc(F)n2-c2cc(F)c(F)cc2N1S(=O)(=O)c1ccc(O)cc1 (configuration not stated)
10,164 to 165,CS(=O)(=O)c1cccc(C2=C(C3CCCC3)CCC2=NO)c1
11,242 to 243,O=C(c1ccccc1)n1c2cc(O)c(O)cc2c2ccc(O)c(O)c21
12,58 to 60,O=C(OCCCI)C(=C1NCCCS1)[N+](=O)[O-]
13,195 to 202,CCCn1c(=O)c2[nH]c(/C=C/c3ccc(Cl)c(Cl)c3)nc2n(CCC)c1=O
14,110,OCCCCCCCCCCCCN1CCC(CNC[C@H](O)COc2cccc3[nH]c4ccccc4c23)CC1
15,71.5 to 73,Brc1ccc(C=Cc2csc3ccccc23)s1
16,196,O=C1CN(C(=O)C(Cl)Cl)N(Cc2ccc(Cl)c(Cl)c2)C(=O)N1
17,84 to 85,CCCCCCCCCCCCCCCCC[C@@H](O)C[C@H]1OC(=O)[C@@H]1CCC
18,259 to 260,COC(=O)C=Cc1cc2cc(NC(=O)c3cc4ccccc4o3)ccc2[nH]1
19,212,CS(=O)(=O)c1ccc(C(=O)N[C@H]2CC[C@H](CCN3CCN(c4nccc5c4OCC5)CC3)CC2)s1
20,> 300,N=C(N)c1ccc(-c2cnc(-c3ccc(C(=N)N)cc3)nc2)cc1
21,113,CCN(CC)C(=O)c1ccc(-c2ccc(-c3ccccc3)c(-c3ccc4c(c3)C(C)(C)CCC4(C)C)c2)cc1
22,169 to 171,O=c1[nH]c(=O)n(C2OC(CO)CC2O)cc1F (configuration not stated)

row,Structure (SMILES),melting point [°C]
1,OC(c1ccc(F)cc1)(c1ccc(F)cc1)C1CCNCC1,160
2,CN1CC2CC(=O)CC(C1)N2C,72 to 73
3,CN(C)c1ccc([PH](=O)c2ccc(N(C)C)cc2)cc1,152
4,CCCCOC(=O)c1ccc(-c2cc(-c3ccc4c(c3)C(C)(C)CCC4(C)C)nc(O)n2)cc1,267 to 277
